Consider 14 molecules from PubChem BioAssay (NCI).

Common to all, as to experiment: NCI anticancer screen, dose series, 48 h
Experiment [1] deals with ACHN renal.
Experiment [2] deals with BT-549 breast.
Experiment [3] has as its system COLO 205 colon.
Experiment [4] deals with IGROV1 ovarian.
The subject of experiment [5] is MDA-MB-231 breast.
For experiment [6], the system named is SF-268 CNS.
For experiment [7], the system named is SK-MEL-2 melanoma.
In experiment [8] the test system is SK-MEL-5 melanoma.
For experiment [9], the system named is SNB-75 CNS.
The test system of experiment [10] is SNB-19 CNS.

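Five compound concentrations were applied to cells in 96-well plates for 48 hours; endpoints were derived by simple linear interpolation of the resulting dose-response curve. TGI is the concentration that stops growth completely.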

As for `O=[N+]([O-])c1nccn1CCCNCCCn1ccnc1[N+](=O)[O-]`, the TGI in experiment [1], in experiment [2], in experiment [3], in [4], in [5] and in [6] was > 100 µM in each case. The TGI in [7], in experiment [8] and in [9] was > 100 µM each time.

For the molecule `NC(N)=NS(=O)(=O)c1ccc(NC(=O)c2ccc3[nH]c4ccccc4c(=O)c3c2)cc1`, the TGI in [1], in experiment [2], in [3], in [4], in experiment [5] and in experiment [6] was > 100 µM each time. Also, the TGI in experiment [7], in experiment [8], in experiment [10] and in experiment [9] was > 100 µM in each case.

`O=C(O)c1ccc(Nc2nc3cc(C(F)(F)F)ccc3nc2-c2ccccc2)cc1`: the TGI is > 100 µM in experiment [1]; > 100 µM in [2]; 37.9 µM in experiment [3]; 35.9 µM in [4]; > 100 µM in experiment [5]; > 100 µM in experiment [6]. Besides, the TGI is > 100 µM in experiment [8], > 100 µM in [10] and 63.9 µM in [9].

Take `C=CCn1cnc2c(=O)[nH]c(Nc3ccccc3)nc21`: the TGI in experiment [1], in [2], in experiment [3], in experiment [4], in [5] and in experiment [6] was > 100 µM each time. The TGI in experiment [7], in [8], in experiment [10] and in experiment [9] was > 100 µM throughout.

Turning to `COCCOCCOCCOc1ccc(C(C#N)N(CCc2ccccc2)C(=O)c2cc(C(=O)N(CCc3ccccc3)C(C#N)c3ccc(OCCOCCOCCOC)cc3)cc(C(=O)N(CCc3ccccc3)C(C#N)c3ccc(OCCOCCOCCOC)cc3)c2)cc1` (configuration not stated), the TGI in experiment [1], in experiment [2], in [3], in [4], in experiment [5] and in [6] was > 100 µM throughout. For the same molecule, the TGI in experiment [7], in experiment [8], in [10] and in experiment [9] was > 100 µM in each case.

For the molecule `CC(=O)O[C@@H]1O[Si](C(C)(C)C)(C(C)(C)C)[C@H](C)[C@H]1C`, the TGI in experiment [1], in experiment [2], in experiment [3], in [4], in experiment [5] and in experiment [7] was > 100 µM in each case. Further, the TGI in experiment [8], in [10] and in experiment [9] was > 100 µM each time.

`O=S(=O)(OI(O)CC(F)(F)F)C(F)(F)F`: the TGI in experiment [1], in experiment [2], in experiment [3], in experiment [4], in experiment [5] and in experiment [6] was > 100 µM each time. In addition, the TGI in experiment [7], in experiment [8] and in [9] was > 100 µM each time.

For the molecule `COC(=O)c1c(C(=O)OC)c2c3ccccc3n(C)c2c2c1c1ccccc1n2C`, the TGI in experiment [1], in [2], in [3], in experiment [4], in experiment [5] and in experiment [7] was > 100 µM throughout. The TGI in [8] is > 100 µM; in experiment [10] it was 83.3 µM; in [9] it was > 100 µM.

Turning to `N#Cc1c(N)c(C#N)c2c(c1-c1ccc(Cl)cc1)COc1ccccc1-2`, the TGI in experiment [1] was 38.1 µM; in [2], 65.2 µM; in experiment [3], > 100 µM; in experiment [4] it was 66.5 µM; in [5], 92.3 µM; in [6], > 100 µM. For the same molecule, the TGI in experiment [7] stood at 60.1 µM; in experiment [8] it was 71.6 µM; in experiment [10], 30.6 µM.

In the case of `CC(=O)Oc1c2oc3cc(O)c(O)cc3c2c(OC(C)=O)c2oc3cc(O)c(O)cc3c12`, the TGI was found to be 74.8 µM in experiment [1]; 31.1 µM in experiment [2]; 33.5 µM in [3]; 91.1 µM in experiment [4]; 51 µM in [6]; 42.1 µM in experiment [7]. In addition, the TGI in experiment [8] turned out to be 38.3 µM; in experiment [10] it was 94.2 µM; in experiment [9], 57.6 µM.

For the molecule `O=C1NC(S(=O)(=O)O)=NNC12c1ccccc1-c1ccccc12`, the TGI in experiment [1], in experiment [2], in experiment [3], in experiment [4], in [5] and in [6] was > 10 µM each time. Moreover, the TGI in [8], in [10] and in experiment [9] was > 10 µM in each case.

For the molecule `COc1ccccc1NC(=S)Nc1cc(C)ccn1`, the TGI in experiment [2] is > 100 µM; in [3], > 100 µM; in experiment [4], > 100 µM; in experiment [5], 60.7 µM; in [6], > 100 µM; in [7], > 100 µM. The TGI in experiment [8], in experiment [10] and in experiment [9] was > 100 µM throughout.

Regarding `COc1ccc(N2C(=O)/C(=C\c3cccc(Oc4ccccc4)c3)SC2c2ccccc2)cc1` (configuration not stated), the TGI in experiment [1], in experiment [2], in [3], in experiment [5], in experiment [6] and in experiment [7] was > 100 µM throughout. Further, the TGI in experiment [8] and in [10] was > 100 µM throughout.

On to `COc1ccc2nc3n(c2c1)C(c1c(Cl)cccc1Cl)SC3` (configuration not stated), for which the TGI in [1], in experiment [2], in [3], in experiment [4], in [7] and in [8] was > 100 µM throughout. The TGI in [10] and in experiment [9] was > 100 µM each time.
